Experiment: Orlistat transfer into oil in vitro
Type: physicochemical
Conditions: after 10 min
Protocol: Orlistat (4 mg) suspensions stabilized by sucroseesters (2 mg) were transferred into 5 ml of a 10% oil in water emulsion (pH value 4.5; oil components: olive oil and cream respectively). The dispersion underwent end-over end mixing for a desired period of time. The oil phase was separated by cold centrifugation and the orlistat content in the oil phase was determined by HPLC. For comparison, an adequate experiment was also performed with a suspension of XENICAL® brand of orlistat-containing pharmaceutical composition. L-1695, P-1670, S-1670, O-1570 are commercial sucroseesters (Sucroselaurate, Sucrosepalmitate, Sucrosestearate, Sucroseoleate respectively) from Mitsubishi-Kagaku Foods, Japan.

SMILES: CCCCCCCCCCC[C@@H](C[C@@H]1OC(=O)[C@H]1CCCCCC)OC(=O)[C@H](CC(C)C)NC=O [orlistat]
- transfer into olive oil, times more efficient than transfer into cream: 7
